# Source: patent US20230134760A1, “CAR AND NRF2 DUAL ACTIVATOR AGENTS FOR CYCLOPHOSPHAMIDE-BASED AND DOXORUBICIN-BASED TREATMENTS OF CANCER” (priority 2020, published 2023)
# Legend:
# hCAR or Nrf2 = assay: all curve and EC50 curve of selected compounds (FIG. 22-35); format: cell-based; details: for Emax: figure legend values
# Method: Cell lysates were assayed for luciferase activity and normalized against the activity of the Renilla luciferase using a Dual-Luciferase Kit (Promega). […] Compound 2, DL7076, was selected for further evaluation based on its effects in activating hCAR and Nrf2 using the HepG2 cell reporter assay (FIGS. 37a-37c).
# BT549 cells = assay: HPH/BT549 co-culture, CPA cytotoxicity (CCK8); format: cell-based; details: HPH/BT549 coculture, CPA 250, 500, 1000 μM, 48 hours
# Method: HPH were cultured in collagen-coated 24 well plates and pre-treated with vehicle control (0.1% DMSO), CITCO (1 μM) or DL7076 (5 μM or 10 μM) for 24 h. […] Following the 24 h pre-treatment, coverslips were combined in hepatocyte seeded wells and exposed to designated concentrations of cyclophosphamide in the presence or absence of DL7076 for various time intervals, as indicated.
# H9c2 cells were seeded 0.8×10^5 in 24-well plates. Following cell attachment, a 2 h pre-treatment with vehicle control (0.1% DMSO), SFN (2.5 μM) or DL7076 (1 μM, 5 μM, or 10 μM) was done followed by doxorubicin (2.5 μM) exposure for 22 h. Co-culture cells were assembled and treated with cyclophosphamide and doxorubicin as indicated. A Cell Counting Kit-8 (Enzo) assay was carried out. Cell viability was described as a percent of vehicle control (0.1% DMSO). Cardiomyocyte, human iPSC-derived cardiomyocytes, and BT549 viability was determined with a 1 hr incubation of 6% CCK8 in WEM.
# H9c2 cells = assay: Oxidative stress imaging (DFDA) in H9c2 cells; format: cell-based, rat; details: H9c2, DOX 1, 2.5, 5 μM, 6 hours
# Method: H9c2 rat cardiomyocytes seeded at 0.8×10^5 in 24-well plates. […] Cells were washed 3× with PBS. Subsequently, 0.5 mL of WEM containing 20 μM 2'-7'-dichlorofluorescein diacetate (DFDA) was added to each well. The cells were incubated at 37° C. and 5% CO2 for 30 min. The oxidation of DFDA to the fluorescent dichlorofluorescein was viewed using fluorescence microscopy (Nikon Eclipse Ti) with a FITC filter at […] and quantified using Brightspot detection for fluorescent detection of triplicate images and normalized to the vehicle control (0.1% DMSO). Cells on coverslips from co-culture experiments were fixed using 4% paraformaldehyde and permealized using Triton-X 100. A primary antibody for mouse anti-phospho-H2AX ([…]) was incubated overnight. Goat anti-mouse IgG Fluor Alexa 488 (1:200) was incubated for 2 hrs. Phosphorylation was calculated through fluorescence intensity all normalized to the vehicle control.
# cleaved caspase-3 = assay: Cleaved caspase-3 Western blot in H9c2 cardiomyocytes; format: cell-based, rat; details: H9c2, DOX 2.5 μM
# From the text: Protein was harvested using cell lysis buffer (Cell Signaling Technology, Danvers, Mass.) with a complete protease inhibitor cocktail (Roche, Mannheim, Germany) prior to homogenizing via sonification. Homogenized protein from treated HPH, H9c2, BT549, and MDA-MB-231 cells were resolved on NuPage Novex Bis-Tris 4-12% gels (Life Technologies) or NuPage Novex Bis-Tris 12% gel and transferred through electrophoresis onto immobilon-P polyvinylidene difluoride (PVDF) membranes. Membranes were blocked with 5% BSA or 5% milk in Tris-Buffer saline with Tween 20 (TBST). Further, membranes were incubated with specific antibodies against human CYP2B6 (1:1000, Abcam), CYP3A4 (1:1000, Millipore Sigma), HO-1 (1:1000, Abcam), cleaved caspase-3 (1:1000 Cell Signaling Technologies), Nrf2 (1:1000, Abcam), TATA-Binding Protein (1:500, Santa Cruz) β-actin (1:3000, Millipore Sigma) at 4° C. overnight. Following overnight incubation, horseradish peroxidase goat anti-mouse or anti-rabbit IgG antibodies were used for secondary incubation. Membranes were developed using SuperSignal West Pico Chemiluminescent Substrate (Thermo Scientific) or Radiance Q (Azure). Two TNBC cell lines, cardiomyocytes, and HPH protein samples were isolated and resolved on a 4-12% or 12% SDS PAGE gel followed by electrophoretic transfer to a PVDF membrane. Membranes were probed 1:1000 for CYP2B6, CYP3A4, Nrf2, cleaved caspase 3, and HO-1 using β-actin (1:3000) or TBP (1:500) as a loading control.
"ROS (fluorescence intensity), DOX alone (H9c2 cells)",SMILES,EC50 (hCAR or Nrf2),Emax (hCAR or Nrf2),"BT549 viability, CPA alone (BT549 cells)","cleaved caspase-3 expression, DOX alone (cleaved caspase-3)"
,"O=C(N[C@@H]1CCCC[C@H]1N=C=S)c1c(-c2ccc3ccccc3c2)nc2occn12 (stereo in doubt) [DL7096, N-((1R,2R)-2-Isothiocyanatocyclohexyl)-6-(naphthalen-2-yl)imidazo[2,1-b]oxazole-5-carboxamide]",330 nM,1.1,,
,"O=P1(N(CCCl)CCCl)NCCCO1 (stereo not shown) [CPA, cyclophosphamide]",,,decreased the viability of the BT549 cells in a concentration-dependent manner,
,"O=C(NCCN=C=S)c1c(-c2ccc3ccccc3c2)nc2occn12 [DL7009, N-(2-Isothiocyanatoethyl)-6-(naphthalen-2-yl)imidazo[2,1-b]oxazole-5-carboxamide]",930 nM,1.4,,
,"O=C(NCC(N=C=S)c1ccccc1)c1c(-c2ccc3ccccc3c2)nc2occn12 (stereo not drawn) [DL7055-2, N-(2-Isothiocyanato-2-phenylethyl)-6-(naphthalen-2-yl)imidazo[2,1-b]oxazole-5-carboxamide]",19000 ± 80 nM,6.2,,
,"O=C(c1c(-c2ccc3ccccc3c2)nc2occn12)N1CCC(N=C=S)CC1 [DL7077, (4-Isothiocyanatopiperidin-1-yl)(6-(naphthalen-2-yl)imidazo[2,1-b]oxazol-5-yl)methanone]",4800 ± 210 nM,1.8,,
,"O=C(NCCCN=C=S)c1c(-c2ccc3ccccc3c2)nc2occn12 [DL7087, N-(3-Isothiocyanatopropyl)-6-(naphthalen-2-yl)imidazo[2,1-b]oxazole-5-carboxamide]",1100 ± 430 nM,1.27,,
,"CC(CN=C=S)NC(=O)c1c(-c2ccc3ccccc3c2)nc2occn12 (stereo not drawn) [DL7091, N-(1-Isothiocyanatopropan-2-yl)-6-(naphthalen-2-yl)imidazo[2,1-b]oxazole-5-carboxamide]",4100 nM,3.6,,
,"CC(CNC(=O)c1c(-c2ccc3ccccc3c2)nc2occn12)N=C=S (stereo not drawn) [DL7092, N-(2-Isothiocyanatopropyl)-6-(naphthalen-2-yl)imidazo[2,1-b]oxazole-5-carboxamide]",32000 nM,6.0,,
,"O=C(NCCCCN=C=S)c1c(-c2ccc3ccccc3c2)nc2occn12 [DL7101, N-(4-Isothiocyanatobutyl)-6-(naphthalen-2-yl)imidazo[2,1-b]oxazole-5-carboxamide]",420 nM,1.6,,
concentration dependently increases ROS,"COc1cccc2c1C(=O)c1c(O)c3c(c(O)c1C2=O)C[C@@](O)(C(=O)CO)C[C@@H]3O[C@H]1C[C@H](N)[C@H](O)[C@H](C)O1 [DOX, doxorubicin]",,,,abundance in the expression of cleaved caspase-3
